Among the data in patent publication US20220274979A1 (Bayer Pharma Aktiengesellschaft, priority 2018, published 2022) are IC50 values, retold here.

The target in experiment [1] is T1, hSOS1 (hSOS1-mediated nucleotide exchange of hK-RasG12C) (Homo sapiens, UniProt Q07889).
T1 construct: hSOS1 (amino acid 564-1049); made in house; host or cells: E. coli BL21 (DE3)
T1 sequence (Q07889 with tags, fused parts or gaps): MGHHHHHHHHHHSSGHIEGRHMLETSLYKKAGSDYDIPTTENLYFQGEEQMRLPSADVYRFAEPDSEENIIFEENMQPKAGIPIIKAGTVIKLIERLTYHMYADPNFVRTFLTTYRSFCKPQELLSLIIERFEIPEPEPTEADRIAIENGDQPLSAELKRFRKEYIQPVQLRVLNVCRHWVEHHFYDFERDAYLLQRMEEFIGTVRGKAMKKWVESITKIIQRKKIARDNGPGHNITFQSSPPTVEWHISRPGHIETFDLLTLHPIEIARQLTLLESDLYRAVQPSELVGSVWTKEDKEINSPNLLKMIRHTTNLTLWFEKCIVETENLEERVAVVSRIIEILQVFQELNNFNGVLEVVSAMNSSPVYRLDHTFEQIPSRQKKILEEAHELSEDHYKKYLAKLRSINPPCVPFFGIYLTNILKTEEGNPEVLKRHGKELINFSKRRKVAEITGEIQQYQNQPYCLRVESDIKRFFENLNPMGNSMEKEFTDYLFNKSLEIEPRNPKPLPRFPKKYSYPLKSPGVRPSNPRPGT
The experiment can be described thus: Biochemical Assay 2: hK-RasG12C activation assay by hSOS1 at high GTP concentration (HTRF nucleotide exchange). The conditions noted are these: high GTP (50 μM GTP). An excerpt: Biochemical Assay 2: hK-RasG12C Activation Assay by hSOS1 at High GTP Concentration
This assay quantifies human SOS1-mediated nucleotide exchange of human K-Ras^G12C (hK-RasG12C) preloaded with a fluorescent […] and in presence of an excess of free GTP. Loaded hK-RasG12C generates a high HTRF-signal by energy transfer from antiGST-Terbium (FRET donor) bound to hK-Ras to the loaded fluorescent GDP analog (FRET-acceptor). hSOS1 activity exchanges the fluorescent GDP for non-fluorescent GTP and therefore leads to a reduction of the HTRF signal.
The fluorescent GDP-analog EDA-GDP-Dy647P1 (2′/3′-O-(2-Aminoethyl-carbamoyl)-guanosine-5′-diphosphate labelled with Dy647P1 (Dyomics GmbH, Germany)) was synthesized by Jena Biosciences GmbH (Germany) and supplied as a 1 mM aqueous solution.
Concentrations of protein batches used were optimized to be within the linear range of the HTRF signal.
Addition of 20 μl 1 M MgCl2 (Sigma) to final 40 mM and store on ice. Purification into buffer (10 mM HEPES pH 7.4 (Applichem), 150 mM NaCl (Sigma), 5 mM MgCl2 (Sigma)) by use of a PD-Minitrap desalting column (GE Healthcare). Concentration of 1 ml purified hK-Ras-GDP-Dy647 is approx. 4-5 μM.
(§1) The assay buffer contained 10 mM HEPES pH 7.4 (Applichem), 150 mM NaCl (Sigma), 5 mM MgCl2 (Sigma), 1 mM DTT (Thermofisher), 0.05% BSA Fraction V, pH 7.0, (ICN Biomedicals), 0.0025% (v/v) Igepal (Sigma).
A Ras working solution was prepared in assay buffer containing typically 80 nM loaded GST-hK-RasG12C-EDA-GDP-Dy647P1 and 2 nM antiGST-Tb (Cisbio, France).
Alternatively, the inhibitor control solution was prepared by supplementing the hSOS1 working solution with 20 μM of 6,7-dimethoxy-N-[(1R)-1-(1-naphthyl)ethyl]quinazolin-4-amine which was used to calibrate the assay.
(§2) Fifty nl of a 100-fold concentrated solution of the test compound in DMSO were transferred into a black microtiter test plate (384 or 1536, Greiner Bio-One, Germany) For this, either a Hummingbird liquid handler (Digilab, Mass., USA) or an Echo acoustic system (Labcyte, Calif., USA) was used.
All steps of the assay were performed at 20° C. A volume of 2.5 μl of the Ras working solution was added to all wells of the test plate using a Multidrop dispenser (Thermo Labsystems). After 2 min. preincubation, 2.5 μl of the hSOS1 working solution were added to all wells except for those wells at the side of the test plate that were subsequently filled with 2.5 μl of the inhibitor control solution. After 20 min. incubation the fluorescence was measured with a Pherastar (BMG, Germany) using the HTRF module (excitation 337 nm, emission 1:620 nm, emission 2:665 nm).
(§3) IC50 values were calculated by 4-Parameter fitting using a commercial software package (Genedata Screener, Switzerland).

In experiment [2] the target is T2, hSOS1 (hSOS1-mediated loading of hK-RasG12C-GDP) (Homo sapiens, UniProt Q07889).
T2 construct: hSOS1 (amino acid 564-1049); made in house; host or cells: E. coli BL21 (DE3)
T2 sequence (Q07889 with tags, fused parts or gaps): T1 sequence (Q07889 with tags, fused parts or gaps)
The experiment can be described thus: Biochemical Assay 3: hK-RasG12C activation assay by hSOS1 (loading with fluorescent GTP analog, HTRF). The conditions noted are these: no GTP.
From the text: Biochemical Assay 3: hK-RasG12C Activation Assay by hSOS1
K-Ras is a small GTPase that can bind GDP and GTP. The guanine nucleotide exchange factor SOS1 catalyzes the activation of K-Ras by promoting the exchange of GDP to GTP. SOS1 binds to K-Ras-GDP thereby opening the GDP-binding pocket to facilitate GDP release. Rebinding of excess nucleotide leads to dissociation of the K-Ras-SOS1 intermediate complex leaving K-Ras loaded with the nucleotide.
This assay quantifies human SOS1-(hSOS1-)mediated loading of human K-Ras^G12C-GDP (hK-RasG12C-GDP) with a fluorescent GTP-analog. Detection of successful loading is achieved by measuring homogenous time-resolved fluorescence resonance energy transfer (HTRF) from antiGST-Terbium (FRET donor) bound to GST-hK-RasG12C (see below) to the loaded fluorescent GTP analog (FRET-acceptor).
The fluorescent GTP-analog EDA-GTP-Dy647P1 (2′/3′-O-(2-Aminoethyl-carbamoyl)-guanosine-5′-triphosphate labelled with Dy647P1 (Dyomics GmbH, Germany)) was synthesized by Jena Biosciences GmbH (Germany) and supplied as a 1 mM aqueous solution.
as §1
Concentrations of protein batches used were optimized to be within the linear range of the HTRF signal. A hRas working solution was prepared in assay buffer containing typically 100 nM GST-hK-RasG12C and 2 nM antiGST-Tb (Cisbio, France). A hSOS1 working solution was prepared in assay buffer containing typically 20 nM hSOS1 and 200 nM EDA-GTP-Dy647P1. An inhibitor control solution was prepared in assay buffer containing 200 nM EDA-GTP-Dy647P1 without hSOS1.
as §2
All steps of the assay were performed at 20° C. A volume of 2.5 μl of the hRas working solution was added to all wells of the test plate using a Multidrop dispenser (Thermo Labsystems). After 10 min. preincubation, 2.5 μl of the hSOS1 working solution were added to all wells except for those wells at the side of the test plate that were subsequently filled with 2.5 μl of the inhibitor control solution. After […] incubation the fluorescence was measured with a Pherastar (BMG, Germany) using the HTRF module (excitation 337 nm, emission 1: 620 nm, emission 2:665 nm).
as §3
Background: TR-FRET usually uses a lanthanide donor and a delayed reading to cut background.

The target of experiment [3] is T3, hK-RasG12C - hSOS1 interaction (Homo sapiens, UniProt Q07889).
T3 construct: hSOS1 (amino acid 564-1049); made in house; host or cells: E. coli BL21 (DE3)
T3 sequence (Q07889 with tags, fused parts or gaps): T1 sequence (Q07889 with tags, fused parts or gaps)
Nature of the experiment: Biochemical Assay 1: hK-RasG12C interaction assay with hSOS1 (HTRF). The class given is binding. How it is done: Biochemical Assay 1: hK-RasG12C Interaction Assay with hSOS1
This assay quantifies the equilibrium interaction of human SOS1 (hSOS1) with human K-Ras^G12C (hK-RasG12C). Detection of the interaction is achieved by measuring homogenous time-resolved fluorescence resonance energy transfer (HTRF) from antiGST-Europium (FRET donor) bound to GST-K-RasG12C to anti-6His-XL665 bound to His-tagged hSOS1 (FRET-acceptor).
The assay buffer contained 5 mM HEPES pH 7.4 (Applichem), 150 mM NaCl (Sigma), 10 mM EDTA (Promega), 1 mM DTT (Thermofisher), 0.05% BSA Fraction V, pH 7.0, (ICN Biomedicals), 0.0025% (v/v) Igepal (Sigma) and 100 mM KF (FLUKA).
Concentrations of protein batches used were optimized to be within the linear range of the HTRF signal. A Ras working solution was prepared in assay buffer containing typically 10 nM GST-hK-RasG12C and 2 nM antiGST-Eu(K) (Cisbio, France). A SOS1 working solution was prepared in assay buffer containing typically 20 nM His-hSOS1 and 10 nM anti-6His-XL665 (Cisbio, France). An inhibitor control solution was prepared in assay buffer containing 10 nM anti-6His-XL665 without hSOS1.
as §2
All steps of the assay were performed at 20° C. A volume of 2.5 μl of the Ras working solution was added to all wells of the test plate using a Multidrop dispenser (Thermo Labsystems). After […] preincubation, 2.5 μl of the SOS1 working solution were added to all wells except for those wells at the side of the test plate that were subsequently filled with 2.5 μl of the inhibitor control solution. After […] incubation the fluorescence was measured with a Pherastar (BMG, Germany) using the HTRF module (excitation 337 nm, emission 1:620 nm, emission 2:665 nm).
as §3

Where two headings read alike, the source gives them in different places.

As usually defined, the IC50 is the midpoint of a concentration-inhibition curve. As to `Cc1nc(NC(C)c2ccc(-c3ccccc3CN(C)C)s2)c2cc(N3CCNC(=O)C3)ncc2n1` (centres unmarked) [Example 50, 4-(4-{[1-(5-{2-[(dimethylamino)methyl]phenyl}thiophen-2-yl)ethyl]amino}-2-methylpyrido[3,4-d]pyrimidin-6-yl)piperazin-2-one], the IC50 in experiment [1] was 0.0488 µM; in experiment [2], 0.0548 µM.

Regarding `CCCOc1cc2c(NC(C)c3ccc(-c4ccccc4CN(C)C)s3)nc(C)nc2cn1` (centres unmarked) [Example 65, N-[1-(5-{2-[(dimethylamino)methyl]phenyl}thiophen-2-yl)ethyl]-2-methyl-6-propoxypyrido[3,4-d]pyrimidin-4-amine], the IC50 in experiment [1] stood at 0.0328 µM. In other words, the double-digit nanomolar range.

Take `Cc1nc(NC(C)c2ccc(-c3ccccc3CN(C)C)s2)c2cc(OCCN(C)C)ncc2n1` (centres unmarked) [Example 66, 6-[2-(dimethylamino)ethoxy]-N-[1-(5-{2-[(dimethylamino)methyl]phenyl}thiophen-2-yl)ethyl]-2-methylpyrido[3,4-d]pyrimidin-4-amine]: the IC50 in experiment [3] (values expressed as IC50) is 0.0304 µM; in experiment [1] it was 0.0227 µM.

As to `CC(=O)N(c1cccc(C(=O)NC2CN(c3cc4c(NC(C)c5ccc(-c6ccccc6CN(C)C)s5)nc(C)nc4cn3)C2)c1)[C@@H]1CCN(C(=O)OC(C)(C)C)C1` (stereo partly drawn) [Example 97, tert-butyl (3R)-3-[acetyl(3-{[1-(4-{[1-(5-{2-[(dimethylamino)methyl]phenyl}-2-thienyl)-ethyl]amino}-2-methylpyrido[3,4-d]pyrimidin-6-yl)azetidin-3-yl]carbamoyl}-phenyl)amino]pyrrolidine-1-carboxylate], the half-maximal inhibitory concentration (IC50) in experiment [3] (values expressed as IC50) was determined as 0.293 µM; in experiment [1] it was 0.298 µM; in experiment [2], 0.554 µM.

As for `CC(=O)N(c1cccc(C(=O)NC2CN(c3cc4c(NC(C)c5ccc(-c6ccccc6CN(C)C)s5)nc(C)nc4cn3)C2)c1)C1CCN(C(=O)OC(C)(C)C)CC1` (centres unmarked) [Example 98, tert-butyl 4-[acetyl(3-{[1-(4-{[1-(5-{2-[(dimethylamino)methyl]phenyl}thiophen-2-yl)ethyl]amino}-2-methylpyrido[3,4-d]pyrimidin-6-yl)azetidin-3-yl]carbamoyl}-phenyl)amino]piperidine-1-carboxylate], the IC50 in experiment [3] stood at 0.271 µM; in experiment [1], 0.428 µM; in experiment [2], 0.62 µM.

Consider `Cc1nc(NC(C)c2ccc(-c3ccccc3CN(C)C)s2)c2cc(N3CC(NCc4ccccc4)C3)ncc2n1` (centres unmarked) [Example 99, 6-[3-(benzylamino)azetidin-1-yl]-N-[1-(5-{2-[(dimethylamino)methyl]phenyl}thiophen-2-yl)ethyl]-2-methylpyrido[3,4-d]pyrimidin-4-amine], for which the IC50 was 0.0532 µM in experiment [3] (values expressed as IC50), 0.0588 µM in experiment [1] and 0.0825 µM in experiment [2].

On to `Cc1nc(NC(C)c2ccc(-c3ccccc3CN(C)C)s2)c2cc(N3CC(NC(=O)N4CCS(=O)(=O)CC4)C3)ncc2n1` (centres unmarked) [Example 100, N-[1-(4-{[1-(5-{2-[(dimethylamino)methyl]phenyl}thiophen-2-yl)ethyl]amino}-2-methylpyrido[3,4-d]pyrimidin-6-yl)azetidin-3-yl]thiomorpholine-4-carboxamide 1,1-dioxide], for which the IC50 in experiment [3] (values expressed as IC50) was determined as 0.0858 µM; in experiment [1], 0.103 µM; in experiment [2], 0.156 µM.
